Tests used:
Assay in all cases: relative viability (nuclei count vs DMSO), 5 days (fraction); higher = more cells survive
[1] = compound: CCN1C(=O)C2=CC(=C(N=C2N(C1=O)C3CC3)N)C(=O)N + Cc1nc(Nc2ncc(C(=O)Nc3c(C)cccc3Cl)s2)cc(N2CCN(CCO)CC2)n1 [Dasatinib] (partner 0.075 µM)
In short: (§1)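 One day after seeding in 1536-well plates, lung cancer cell lines were dosed by pin tool. Dosing was either single-drug or a fixed anchor-drug dose plus five library-drug doses (not always all listed) in √10 steps. After 5 days, nuclei were stained in one fix-and-stain step and counted on 4× images, and relative viability is the nuclei count of treated wells over that of vehicle wells, given as the median of duplicate plates.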

[2] = compound: CCN1C(=O)C2=CC(=C(N=C2N(C1=O)C3CC3)N)C(=O)N + O=C(CCCCCCC(=O)Nc1ccccc1)NO [Vorinostat] (partner 1 µM)
In short: as §1

[3] = compound: CCN1C(=O)C2=CC(=C(N=C2N(C1=O)C3CC3)N)C(=O)N + CS(=O)(=O)CCNCc1ccc(-c2ccc3ncnc(Nc4ccc(OCc5cccc(F)c5)c(Cl)c4)c3c2)o1 [Lapatinib] (partner 2 µM)
In short: as §1

[4] = compound: CCN1C(=O)C2=CC(=C(N=C2N(C1=O)C3CC3)N)C(=O)N + CC1(C)CCC(c2ccc(Cl)cc2)=C(CN2CCN(c3ccc(C(=O)NS(=O)(=O)c4ccc(N[C@H](CCN5CCOCC5)CSc5ccccc5)c(S(=O)(=O)C(F)(F)F)c4)cc3)CC2)C1 [Navitoclax] (partner 0.5 µM)
In short: as §1

[5] = compound: CCN1C(=O)C2=CC(=C(N=C2N(C1=O)C3CC3)N)C(=O)N
In short: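 Viability was read as treated-well nuclei divided by vehicle-well nuclei, using the median across plates. Lung cancer cell lines in 1536-well plates were kept overnight at 37 °C, pinned with five √10-spaced library-drug doses, and after 5 days were Hoechst-stained, imaged at 4× and counted in MetaXpress. Plates passed only with control CV below 25% and at least one doubling.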

Cell Line	relative viability ([1]; first compound 0.253 µM)	relative viability ([1]; first compound 0.8 µM)	relative viability ([1]; first compound 2.53 µM)	relative viability ([1]; first compound 8 µM)	relative viability ([2]; first compound 0.253 µM)	relative viability ([2]; first compound 0.8 µM)	relative viability ([2]; first compound 2.53 µM)	relative viability ([2]; first compound 8 µM)	relative viability ([3]; first compound 0.253 µM)	relative viability ([3]; first compound 0.8 µM)	relative viability ([3]; first compound 2.53 µM)	relative viability ([3]; first compound 8 µM)	relative viability ([4]; first compound 0.253 µM)	relative viability ([4]; first compound 0.8 µM)	relative viability ([4]; first compound 2.53 µM)	relative viability ([4]; first compound 8 µM)	relative viability ([5]; 0.253 µM)	relative viability ([5]; 0.8 µM)	relative viability ([5]; 2.53 µM)	relative viability ([5]; 8 µM)
NCI-H596	0.625	0.569	0.519	0.548	0.582	0.626	0.614	0.571	1.07	1.02	1.09	1.06	1.07	0.904	0.999	1.17	0.933	0.984	1.06	0.971
HCC-15	0.634	0.598	0.61	0.598	0.885	0.785	0.869	0.815	0.816	0.903	0.782	0.859	0.692	0.753	0.683	0.69	0.943	1.02	0.994	1.03
NCI-H2126	0.632	0.55	0.596	0.52	0.846	0.803	0.765	0.797	0.787	0.778	0.761	0.749	0.86	0.884	0.736	0.775	1.02	0.989	0.972	0.963
NCI-H2085	0.224	0.259	0.227	0.23	0.767	0.764	0.747	0.782	0.721	0.782	0.743	0.68	1.15	1.1	1.2	0.997	1.01	0.99	0.941	0.966
BEN	0.368	0.267	0.313	0.356	0.608	0.641	0.63	0.625	0.776	0.638	0.827	0.697	0.074	0.0565	0.0783	0.0841	0.952	0.885	1.11	1.02
PC-3 [JPC-3]	1.05	1.04	1.05	0.973	0.93		1.22	1.08	0.486	0.416	0.481	0.476	0.747	0.838	0.861	0.755	1.06	1.01	1.06	1.08
NCI-H2228	0.505	0.467	0.508	0.55	0.933	0.572	0.676	0.679	0.893	1.1	1.26	1.26	0.996	1.29	0.925	0.838	0.99	1.01	0.902	0.965
COR-L23	0.573	0.562	0.456	0.531	0.413	0.393	0.446	0.343	0.927	1.03	0.745	1.04	1.05	0.939	1.03	1.04	1.01	0.962	1.04	1.12
NCI-H1915	0.294	0.307	0.312	0.285	0.49	0.546	0.493	0.436	0.952	0.942	0.974	0.922	0.738	0.799	0.752	0.711	0.988	1.01	1	0.922
